In patent US11020374B2, “Sulcardine salts” (HUYA Bioscience International, LLC, priority 2019, dated 2021):
Values joined by “and” are separate entries in the source; they are usually repeats but may differ in a detail not shown here. Identical values can stand only once. Counter-ions that a name gives are not always drawn.

How the values were obtained:
[1] = cited from earlier work; for pKa 1: first pKa
[2] = Dynamic vapor sorption (DVS) experiment; assay type: physicochemical; details: for crystalline form of the salt before the DVS experiment and afterwards: XRPD form before vs after DVS; for uptake of water (DVS): at 90% RH
[3] = One-week stability studies (40° C./75% RH, 80° C., ambient light) by XRPD and HPLC; assay type: physicochemical; details: for HPLC purity after stability experiment: 99% before; for stability by XRPD / appearance: one week at 80° C. and ambient humidity
Method: For all of the stability studies provided herein under the condition of 40° C. and 75% RH, samples were in an uncapped vial and stored in a stability chamber set to 40° C./75% RH. For the 80° C. studies, samples were in a sealed vial and placed in an oven set to 80° C. For the ambient light studies, the samples were in a sealed vial placed on a windowsill in the lab which was exposed to ambient natural and artificial light.

[4] = Solubility in 20 mM buffers (Example 3), slurried ca. 72 hr, HPLC concentration; assay type: physicochemical; details: pH 1.2
Method: 20 mM buffers were prepared to pH 1.2 (HCl/KCl), pH 3.0 (HCl/glycine), pH 4.0 (citric acid/sodium citrate) and pH 7.4 (potassium phosphate monobasic/NaOH). To 0.5 mL of each buffer, the appropriate salt was added to form a slurry. The pH of the slurry was measured and adjusted back to the desired pH (i.e., the initial pH of the buffer) if necessary using 0.2 M buffer components (e.g. 0.2 M HCl(aq)). […] After this time, if solid remained, the pH was again adjusted back to the desired pH if necessary using 0.2 M buffer components. If no solid remained, additional solid was added to reform the slurry before the pH was again adjusted back to the desired pH if necessary using 0.2 M buffer components. All samples were then slurried for a further 2 hr before being analysed by HPLC for concentration.

[5] = GVS (gravimetric vapor sorption) with post-GVS XRPD; assay type: physicochemical; details: 40-90-0-40% RH, 25° C., two cycles
Method: Form II was first observed during the GVS characterization of Form I. The material collected post-GVS analysis of Form I was analyzed by XRPD. […] The XRPD reference is “LNB15318-53-1-PostGVS” in FIG. 34.
Approximately 26 mg of Form I was placed into a mesh vapor sorption balance pan and loaded into an IGASorp Moisture Sorption Analyser balance by Hiden Analytical. The sample was subjected to a ramping profile from 40-90% relative humidity (RH) at 10% increments, maintaining the sample at each step until a stable weight had been achieved (98% step completion, minimum step length 30 minutes, maximum step length 60 minutes) at 25° C. After completion of the sorption cycle, the sample was dried using the same procedure to 0% RH, and finally taken back to the starting point of 40% RH. Two cycles were performed. The weight change during the sorption/desorption cycles were plotted, allowing for the hygroscopic nature of the sample to be determined. The material collected post-GVS analysis was analyzed by XRPD.

[6] = Sulcardine salts PK analysis, oral capsule administration; assay type: in vivo; details: single oral capsule administration, fasted male Beagle dogs
Method: The pharmacokinetic objective of this study was to assess the exposure to sulcardine following oral capsule administration or intravenous (IV) infusion of sulcardine sulfate salt, sulcardine naphthoate salt, or sulcardine mono-edisylate salt (Form II) to male dogs during a pharmacokinetic study.
Non-naïve Beagle Dogs were fasted. Dosing formulations (oral [PO] capsule and intravenous [IV] infusion) were prepared on the day prior to dosing. The IV formulations were made in 10 mM Glycine (pH adjusted to 3.0±0.1), 3% Mannitol, qs in Sterile Water for Injection, USP were filtered through a 0.22 μm PVDF filter and stirred for at least 30 minutes prior to dosing. The capsule doses were encapsulated as active pharmaceutical ingredient powder into the appropriate number of […] gelatin capsules on the day prior to dosing.
Oral dosing was once on Day 1 by oral capsule administration; IV dosing was once on Day 1 by IV infusion over approximately 45 minutes (±2 minutes).
The blood samples for animals dosed orally were collected at 0.5, 1, 2, 3, 5, 8, 12, 18, 24, and 36 hours postdose. The blood samples for animals dosed IV were collected at approximately 0.33, 0.75 (end of infusion), 1.5, 3, 6, 9, 12, 18, and 24 hours post the start of infusion.
The blood samples were centrifuged under refrigerated (2° C. to 8° C.) conditions at 3,200 RPM for 10 minutes and the resulting plasma was divided into two aliquots (150 μL and remaining) then frozen and shipped for bioanalysis. Plasma samples were analyzed for concentrations of sulcardine by Citoxlab North America, Laval, Québec, Canada.
Individual sulcardine plasma concentration time profiles from sulcardine sulfate salt, sulcardine mono-edisylate salt, or sulcardine naphthoate salt treated animals were analyzed using model-independent methods (Gibaldi M, Perrier D. Pharmacokinetics. 2nd ed. New York: Marcel Dekker, Inc., 1982:409-17). Pharmacokinetic parameters were obtained/calculated for each animal on Day 1.

[7] = one week at 40° C. and 75% RH, uncapped vial
[8] = one week under ambient light conditions, sealed vial
[9] = one week under ambient light conditions
[10] = increase in relative humidity (RH) from about 10% to about 90%

Row | SMILES | crystalline form of the salt before the DVS experiment and afterwards [2] | uptake of water (DVS) [2] | stability by XRPD [3, 7] | HPLC purity after stability experiment ([3]; one week at 40° C. and 75% RH) | stability by XRPD / appearance ([3]; sealed vial) | HPLC purity after stability experiment ([3]; one week at 80° C.) [%] | stability by XRPD [3, 8] | HPLC purity after stability experiment [3, 9] | mass increase [2, 10] | further results
1 | O=S(=O)(O)CCS(=O)(=O)O [1,2-Ethanedisulfonic acid] | – | – | – | – | – | – | – | – | – | pKa 1 [1]: −2.06
2 | COc1ccc(NS(=O)(=O)c2cc(CN3CCCC3)c(O)c(CN3CCCC3)c2)cc1.O=S(=O)(O)c1cccc2c(S(=O)(=O)O)cccc12 [Example 5, naphthalene-1,5-disulfonic acid salt of sulcardine] | the same | about 3.3% | unchanged | 99% | unchanged | 99 | unchanged | 99% | – | mass increase ([2]; increase in relative humidity (RH) from about 5% to about 95%): about 3.3%
3 | COc1ccc(NS(=O)(=O)c2cc(CN3CCCC3)c(O)c(CN3CCCC3)c2)cc1.O=C(O)c1ccc2ccccc2c1O [Example 8, 1-hydroxy-2-naphthoic acid salt of sulcardine] | – | – | – | – | – | – | – | – | about 0.7% | Crystallinity of the material in the solubility experiment [4]: loses crystallinity
4 | COc1ccc(NS(=O)(=O)c2cc(CN3CCCC3)c(O)c(CN3CCCC3)c2)cc1.O=S(=O)(O)c1ccc2ccccc2c1 [Example 10, naphthalene-2-sulfonic acid salt of sulcardine] | – | – | unchanged | 99% and 98% | changed into an orange gel | 90 | unchanged by XRPD but had turned pale yellow | 99% and 97% | – | stability by XRPD / appearance ([3]; sealed vial, listed as Example 9): unchanged; HPLC purity after stability experiment ([3]; one week at 80° C., listed as Example 9): 99%; stability by XRPD ([3]; one week under ambient light conditions, sealed vial, listed as Example 9): unchanged
5 | COc1ccc(S(=O)(=O)NCc2cc(CN3CCCC3)c(O)c(CN3CCCC3)c2)cc1 [Example 12, sulcardine hydrochloride] | the same | about 2.2% | unchanged | 98% | changed into an orange gel | 90 | unchanged | 99% | about 2.2% | –
6 | COc1ccc(NS(=O)(=O)c2cc(CN3CCCC3)c(O)c(CN3CCCC3)c2)cc1.COc1ccc(NS(=O)(=O)c2cc(CN3CCCC3)c(O)c(CN3CCCC3)c2)cc1.O=S(=O)(O)CCS(=O)(=O)O [Example 14, hemi-ethane-1,2-disulfonic acid salt of sulcardine] | the same | about 0.5% | unchanged | 98% | unchanged | 97 | unchanged | 97% | about 0.5% | –
7 | COc1ccc(NS(=O)(=O)c2cc(CN3CCCC3)c(O)c(CN3CCCC3)c2)cc1.O=S(=O)(O)CCS(=O)(=O)O [Example 17, mono-ethane-1,2-disulfonic acid salt of sulcardine] | – | – | – | – | – | – | – | – | – | XRPD of material collected post-GVS analysis [5]: A new pattern (denoted Form II) was observed
8 | COc1ccc(NS(=O)(=O)c2cc(CN3CCCC3)c(O)c(CN3CCCC3)c2)cc1.O=S(=O)(O)CCS(=O)(=O)O [Example 18, mono-ethane-1,2-disulfonic acid salt of sulcardine] | – | – | – | – | – | – | – | – | – | Cmax of sulcardine in plasma ([6]; group average): 4570 ng/mL; Tmax (median peak sulcardine plasma concentration) ([6]; median): 0.5 h
9 | COc1ccc(S(=O)(=O)NCc2cc(CN3CCCC3)c(O)c(CN3CCCC3)c2)cc1 [Sulcardine free base comparator, 4-methoxy-N-(3,5-bis-(1-pyrrolidinylmethyl)-4-hydroxybenzyl)benzene sulfonamide] | – | – | – | – | – | – | – | – | – | pKa 1 [1]: 6.00; pKa 2 ([1]; second pKa): 10.57; pKa 3 ([1]; third pKa): 11.65
10 | COc1ccc(S(=O)(=O)NCc2cc(CN3CCCC3)c(O)c(CN3CCCC3)c2)cc1 [sulfate salt, Sulcardine sulfate, reference compound] | – | – | – | – | – | – | – | – | – | Cmax ([6]; dog, plasma, group average): 2820 ng/mL; Tmax ([6]; dog, plasma, median, read-out: Tmax (median peak sulcardine plasma concentration)): 2 h
